Assay results taken from patent US6337091B1, “Matrix for controlled delivery of highly soluble pharmaceutical agents” (Temple University - of the Commonwealth System of Higher …, priority 1997, dated 2002).

Legend:
[1] = Dissolution study of diltiazem hydrochloride tablets, USP 23 apparatus II (paddle), deionized water; assay type: physicochemical
Experimental: The system was automated using an HP diode array UV spectrophotometer, 8452a with continuous sampling, using a peristaltic pump (HP flow control, 89092A) and Mckinet software (HP 89532K Multicell Kinetics Software) for data analysis. Measurements were performed at 238 nm. […] Fresh dissolution medium (5 mL), heated to 37° C., was added to the vessel to maintain constant volume. Each experimental ran (n=3) was done at least in duplicate. […]

[2] = cited from earlier work
[3] = cited from earlier work; remark: listed apart in the source
[4] = Dissolution study of propranolol tablets in deionized water; assay type: physicochemical
Experimental: The dissolution study was performed in 1,000 ml deionized water at 37° C. and 100 rpm. Measurements were performed at wavelength 289 nm.

correlation coefficient of release profile (linearity) ([1]; absence of either gelatin or tragacanth) | correlation coefficient of release profile (linearity) ([1]; diltiazem granulated/coated with gelatin, in binary polymeric matrix) | correlation coefficient of release profile (linearity) ([1]; diltiazem granulated/coated with tragacanth, in binary polymeric matrix) | degradation product, HPLC analysis (USP 23 method) ([1]; entire dissolution period) | correlation coefficient of release profile (linearity) ([4]; control) | correlation coefficient of release profile (linearity) ([4]; propranolol granulated/coated with gelatin, in binary polymeric matrix) | correlation coefficient of release profile (linearity) ([4]; propranolol granulated/coated with tragacanth, in binary polymeric matrix) | SMILES | bioavailability ([2]; due to extensive variable first-pass metabolism) | clearance from plasma ([2]; in vivo) | elimination half-life ([2]; in vivo) | protein binding [3]
0.946 | 0.997 | 0.979 | no degradation product |  |  |  | COc1ccc([C@@H]2Sc3ccccc3N(CCN(C)C)C(=O)[C@@H]2OC(C)=O)cc1 [diltiazem, Diltiazem] | 30 to 60% | high clearance | 3 to 6 h | greater than 90%
 |  |  |  | 0.927 | 0.994 | 0.989 | CC(C)NCC(O)COc1cccc2ccccc12 (centres unmarked) [propranolol] |  |  |  | 
